Reference: PubChem BioAssay (NCI)
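Results reflect a 48-hour exposure of cells in 96-well plates to compound at five concentrations. GI50 = concentration required for 50% inhibition of growth. TGI marks complete inhibition of growth.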

Legend:
Assay in all cases: NCI anticancer screen, dose series, 48 h
[1] = test system: MCF7 breast
[2] = test system: ACHN renal
[3] = test system: U251 CNS
[4] = test system: MDA-MB-231 breast
[5] = test system: K-562 leukemia
[6] = test system: SF-295 CNS
[7] = test system: A549 NSCLC
[8] = test system: SNB-75 CNS
[9] = test system: HCT-116 colon
[10] = test system: MOLT-4 leukemia
[11] = test system: MALME-3M melanoma
[12] = test system: HOP-92 NSCLC
[13] = test system: HCC-2998 colon
[14] = test system: SK-MEL-5 melanoma
[15] = test system: COLO 205 colon
[16] = test system: TK-10 renal
[17] = test system: CCRF-CEM leukemia
[18] = test system: T-47D breast
[19] = test system: SW-620 colon
[20] = test system: UACC-257 melanoma
[21] = test system: UACC-62 melanoma
[22] = test system: NCI-H460 lung
[23] = test system: OVCAR-4 ovarian
[24] = test system: DU-145 prostate
[25] = test system: SN12C renal
[26] = test system: HS 578T breast
[27] = test system: OVCAR-5 ovarian
[28] = test system: NCI/ADR-RES ovarian
[29] = test system: NCI-H23 lung
[30] = test system: EKVX NSCLC
[31] = test system: RPMI-8226 leukemia
[32] = test system: SNB-19 CNS
[33] = test system: SF-539 CNS
[34] = test system: SF-268 CNS
[35] = test system: SK-OV-3 ovarian
[36] = test system: LOX IMVI melanoma
[37] = test system: MDA-MB-435
[38] = test system: OVCAR-3 ovarian
[39] = test system: RXF 393 renal
[40] = test system: IGROV1 ovarian
[41] = test system: NCI-H522 lung
[42] = test system: HL-60(TB) leukemia
[43] = test system: SK-MEL-2 melanoma
[44] = test system: CAKI-1 renal
[45] = test system: NCI-H226 lung
[46] = test system: 786-0 renal
[47] = test system: UO-31 renal
[48] = test system: HOP-62 NSCLC
[49] = test system: PC-3 prostate

Structure (SMILES): Cc1ccc2c(c1)C(=O)C(c1c(-c3[nH]c(=O)c4ccc(C)cc4c3O)c(O)c3ccccc3c1O)=NC2=O
- GI50 [1]: 1.59 µM
- TGI [1]: 4.58 µM
- GI50 [2]: 1.72 µM
- TGI [2]: 4.36 µM
- GI50 [3]: 1.24 µM
- TGI [3]: 2.7 µM
- GI50 [4]: 0.457 µM
- TGI [4]: 3.86 µM
- GI50 [5]: 0.378 µM
- TGI [5]: 3.44 µM
- GI50 [6]: 1.67 µM
- TGI [6]: 3.55 µM
- GI50 [7]: 2.1 µM
- TGI [7]: 4.26 µM
- GI50 [8]: 1.42 µM
- TGI [8]: 2.84 µM
- GI50 [9]: 0.423 µM
- TGI [9]: 1.53 µM
- GI50 [10]: 0.527 µM
- TGI [10]: 3.02 µM
- GI50 [11]: 1.76 µM
- TGI [11]: 3.54 µM
- GI50 [12]: 1.66 µM
- TGI [12]: 5.1 µM
- GI50 [13]: 2.3 µM
- TGI [13]: 4.97 µM
- GI50 [14]: 1.87 µM
- TGI [14]: 3.81 µM
- GI50 [15]: 2.85 µM
- TGI [15]: 12.8 µM
- GI50 [16]: 2.91 µM
- TGI [16]: 5.97 µM
- GI50 [17]: 0.83 µM
- TGI [17]: 8.03 µM
- GI50 [18]: 1.48 µM
- TGI [18]: 5.26 µM
- GI50 [19]: 1.56 µM
- TGI [19]: 3.44 µM
- GI50 [20]: 3.04 µM
- TGI [20]: 7.98 µM
- GI50 [21]: 1.76 µM
- TGI [21]: 3.79 µM
- GI50 [22]: 1.78 µM
- TGI [22]: 3.39 µM
- GI50 [23]: 1.17 µM
- TGI [23]: 2.43 µM
- GI50 [24]: 1.18 µM
- TGI [24]: 2.9 µM
- GI50 [25]: 1.8 µM
- TGI [25]: 3.63 µM
- GI50 [26]: 2.34 µM
- TGI [26]: 6.33 µM
- GI50 [27]: 2.87 µM
- TGI [27]: > 100 µM
- GI50 [28]: 2.11 µM
- TGI [28]: 7.56 µM
- GI50 [29]: 1.63 µM
- TGI [29]: 4.04 µM
- GI50 [30]: 1.72 µM
- TGI [30]: 5.66 µM
- GI50 [31]: 2.32 µM
- TGI [31]: 6.68 µM
- GI50 [32]: 2.31 µM
- TGI [32]: 7.3 µM
- GI50 [33]: 1.67 µM
- TGI [33]: 3.31 µM
- GI50 [34]: 2.24 µM
- TGI [34]: 5.47 µM
- GI50 [35]: 2.15 µM
- TGI [35]: 5.36 µM
- GI50 [36]: 1.28 µM
- TGI [36]: 2.71 µM
- GI50 [37]: 1.69 µM
- TGI [37]: 3.29 µM
- GI50 [38]: 0.832 µM
- TGI [38]: 2.4 µM

Structure (SMILES): O=c1cc(-c2ccccc2)oc2cc(OCc3cn(Cc4ccc(F)cc4)nn3)cc(OCc3cn(Cc4ccc(F)cc4)nn3)c12
- GI50 [5]: > 100 µM
- TGI [5]: > 100 µM
- GI50 [8]: 1.69 µM
- TGI [8]: 4.85 µM
- GI50 [9]: 3.52 µM
- TGI [9]: > 100 µM
- GI50 [10]: > 100 µM
- TGI [10]: > 100 µM
- GI50 [39]: 1.78 µM
- TGI [39]: 4.5 µM
- GI50 [12]: 1.89 µM
- TGI [12]: 5.52 µM
- GI50 [13]: > 100 µM
- TGI [13]: > 100 µM
- GI50 [40]: 4.45 µM
- TGI [40]: > 100 µM
- GI50 [17]: > 100 µM
- TGI [17]: > 100 µM
- GI50 [41]: 3.66 µM
- TGI [41]: > 100 µM
- GI50 [42]: > 100 µM
- TGI [42]: > 100 µM
- GI50 [26]: 3.28 µM
- TGI [26]: > 100 µM
- GI50 [43]: 4.49 µM
- TGI [43]: 33.1 µM
- GI50 [28]: > 100 µM
- TGI [28]: > 100 µM
- GI50 [29]: 3.7 µM
- TGI [29]: > 100 µM
- GI50 [32]: 4.55 µM
- TGI [32]: > 100 µM
- GI50 [34]: 3.52 µM
- TGI [34]: > 100 µM

Structure (SMILES): COc1cccc(C2CC(=O)c3cc(N4CCCC4)ccc3N2)c1 (stereo not given)
- GI50 [1]: 0.0739 µM
- TGI [1]: > 100 µM
- TGI [44]: > 100 µM
- TGI [2]: 34.8 µM
- TGI [45]: 36.3 µM
- GI50 [4]: 4.66 µM
- TGI [4]: > 100 µM
- TGI [46]: > 100 µM
- TGI [5]: > 100 µM
- TGI [6]: > 100 µM
- TGI [7]: > 100 µM
- GI50 [12]: > 100 µM
- TGI [12]: > 100 µM
- GI50 [13]: 0.0146 µM
- TGI [13]: 0.389 µM
- TGI [47]: 65.8 µM
- GI50 [16]: 45.5 µM
- TGI [16]: > 100 µM
- TGI [17]: > 100 µM
- TGI [18]: > 100 µM
- TGI [19]: > 100 µM
- TGI [20]: > 100 µM
- TGI [23]: > 100 µM
- TGI [41]: 0.0624 µM
- TGI [26]: > 100 µM
- GI50 [27]: > 100 µM
- TGI [27]: > 100 µM
- GI50 [43]: 64.5 µM
- TGI [43]: > 100 µM
- TGI [28]: 0.0491 µM
- TGI [48]: > 100 µM
- TGI [29]: 0.163 µM
- TGI [30]: > 100 µM
- TGI [31]: > 100 µM
- TGI [32]: > 100 µM
- TGI [33]: > 100 µM
- TGI [49]: > 100 µM
- TGI [36]: > 100 µM
- TGI [37]: 1.49 µM
- TGI [38]: > 100 µM
